Data set [1] in a line: Phase I clinical trial of oral Vorinostat plus Bortezomib: MTD, safety and tolerability. It counts as in vivo, human. The following applies: Vorinostat 500 mg daily with Bortezomib […]^2, cycle 1, 2 patients. On the procedure:
This was a multicenter, open label, escalating dose, Phase I study of Vorinostat in combination with intravenous Bortezomib injection in patients eligible for Bortezomib therapy. […] Patients on Dose Levels 1-5 were administered Bortezomib as an intravenous (IV) bolus on Days 1, 4, 8 and 11.
At the beginning of the study, five 3-patient cohorts were evaluated at various dose levels as outlined in the Table 1 and Table 2 below.
In the absence of treatment delays due to adverse events, treatment continued for 8-cycles or until one of the following criteria applied: • a) disease progression • b) intercurrent illness that prevents further administration of treatment • c) unacceptable adverse events • d) patient decides to withdraw from the study • e) general or specific changes in the patient's condition render the patient unacceptable for further treatment in the judgment of the investigator. • f) if the patient achieves a complete remission, they continue on the study for a total of 8 cycles.
Further studies enrolled up to 40 adult patients with multiple myeloma, relapsed or refractory disease. One treatment cycle was 3 weeks or 21 days. […] Although the current FDA approved Bortezomib dose for relapsed myeloma patients to be […], if toxicity occurred, the subsequent dose of Bortezomib was going to be decreased to 0.7 mg/m^2. […] Other Bortezomib dose to be tested was 1.3 mg/m^2.

Data set [2] can be described thus: Pharmacokinetics of Vorinostat in the Phase I trial.
Data set [3] relates to relapsed and refractory multiple myeloma. Kind of data set: Phase I clinical trial of oral Vorinostat plus Bortezomib: response. It is filed as in vivo, human. The following applies: dexamethasone 20 mg p.o. days 4-8 added to Vorinostat and Bortezomib for nonresponders.

The source of these data is patent publication US20100113392A1, “METHODS OF USING SAHA AND BORTEZOMIB FOR TREATING MULTIPLE MYELOMA” (priority 2006, published 2010).

As for `O=C(CCCCCCC(=O)Nc1ccccc1)NO` [Vorinostat, N-Hydroxy-N′-phenyl octanediamide], the “toxicities defining the MTD in cycle 1” value in data set [1] is “grade 4 prolonged QT interval and grade 4 fatigue”. Moreover, the “effect of administration after Bortezomib on pharmacokinetics” value in data set [2] (Vorinostat given after Bortezomib) is on record as “did not affect pharmacokinetics”. The “dose dependence of pharmacokinetics” value in data set [2] (single oral dose, 100-500 mg) is “linear”.

Consider “9-fluoro-1′-beta,17,21-trihydroxy-16-alpha-methylpregna-1,4-diene-3,20-dione [dexamethasone]”, for which the “effect of added dexamethasone on response” value in data set [3] is “no upgrade in response”.
